One data set addresses 5FW-BPTF bromodomain (Homo sapiens, UniProt Q12830). Put plainly: Protein-observed 19F NMR. Type of data set: binding. The following applies: for selectivity between BPTF and Brd4 by PrOF NMR (in words): dual screen; for BPTF 19F NMR: 100 μM compound, 50 μM Brd4 and BPTF, 1% DMSO.
In data set [1] the target is 5FW-Brd4 (first bromodomain of Brd4) (Homo sapiens, UniProt O60885). The data set is described as follows: Protein-observed 19F NMR. Type of data set: binding. The following applies: for Brd4 19F NMR: 100 μM compound, 50 μM Brd4 and BPTF, 1% DMSO; for binding to Brd4 (in words): PrOF NMR.
The target of data set [2] is T1, Brd4 (Homo sapiens, UniProt O60885). The data set is described as follows: Fluorescence anisotropy competition against bound BODIPY-BI2536. Type of data set: binding. For orientation: Fluorescence polarisation rises when a labelled molecule tumbles more slowly, as on binding a larger partner.
The target of data set [3] is T1, Brd4. Put plainly: Differential scanning fluorimetry. It counts as binding. The following applies: DSF, 100 μM inhibitor, 4 μM Brd4. (In general: Differential scanning fluorimetry follows unfolding on heating by fluorescence.)
The subject of data set [4] is BPTF-regulatory region upstream of Mobkl3 promoter in Eph4 cells. The data set is described as follows: pGL3_Mobkl3p luciferase reporter assay. Type of data set: cell-based, mouse. Conditions: 5 μM for 12 hours, pGL3_Mobkl3p vector.
The subject of a further data set is hepatocytes. The following applies: 10 μM compound; cited from earlier work.
The conditions of data set [5]: read-out: EC50 in five cellular assays; ChEMBL search; targets unknown; cited from earlier work.
The next data set in a line: Cell viability assay. The following applies: human, HEK 293T cells. Type of data set: cell-based, human.
Another data set relates to HEK 293T cells. Put plainly: Cell viability assay. Type of data set: cell-based, human. Conditions: 24 hours at 3 and 10 μM.

Structures are written as SMILES. Where two headings read alike, the source gives them in different places.

On to `Oc1ccc(-c2nc(-c3ccncc3)c(-c3ccc(F)cc3)[nH]2)cc1` [SB-202190, reference compound], for which the “selectivity between BPTF and Brd4 by PrOF NMR (in words)” value (“selectivity between BPTF and Brd4” below) at 5FW-BPTF bromodomain is “selective for Brd4 over BPTF”.
As usually defined, the Ki is a dissociation constant, usually derived from enzyme kinetics or from competition with a known ligand. With `CCc1ccc(Oc2nccc(-c3c(-c4ccc(F)cc4)ncn3C3CCNCC3)n2)cc1` [SB-242719], the “Brd4 19F NMR” value in data set [1] is given as “+++”. Also, the “BPTF 19F NMR” value at 5FW-BPTF bromodomain is listed as “+ (a resonance from the protein in question has been perturbed by 1 standard deviation in either chemical shift or linewidth)”. Besides, at Brd4 [2], the Ki is 13000 ± 3000 nM. On Brd4 [2] (relative to SB-284851-BT (1)), this compound registered a fold weaker affinity of 40 fold.
As to `CCn1c(-c2nonc2N)nc2c(C#CCN)ncc(OCCCN)c21` [GSK561866B], the “Brd4 19F NMR” value in data set [1] is “-”. Besides, on 5FW-BPTF bromodomain, the “BPTF 19F NMR” value was “++ (a resonance from the protein in question has been perturbed by 2 standard deviations in either chemical shift or linewidth)”; the “selectivity between BPTF and Brd4” value is given as “highly selective for BPTF”.
Take `O=C(Nc1ccc2c(c1)OCO2)NC1CCN(c2ccnc(Nc3ccc(F)cc3)n2)C1` (stereo not drawn) [GSK1379724A]: the “binding to Brd4 (in words)” value in data set [1] is “unable to bind”. At 5FW-BPTF bromodomain (PrOF NMR), the “binding to BPTF (in words)” value is on record as “unable to bind”.
Regarding `COC(=O)c1cccc(NC(=O)NC2CCN(c3ccnc(Nc4ccc(OC)cc4)n3)C2)c1` (stereo not drawn) [GSK1379746A], in data set [1], the “Brd4 19F NMR” value was “-”. On 5FW-BPTF bromodomain, the “BPTF 19F NMR” value was “+++”; the “selectivity between BPTF and Brd4” value is given as “completely selective for BPTF over Brd4”.
As to `COC(=O)c1cccc(NC(=O)NC2CCN(c3ccnc(Nc4cc(OC)c(OC)c(OC)c4)n3)C2)c1` (stereo not drawn) [GSK1379767A], the “Brd4 19F NMR” value in [1] is given as “+++”. For the same compound, at 5FW-BPTF bromodomain, the “BPTF 19F NMR” value was “+++”.
Turning to `CN(C)CCOc1ccc(-c2nc(-c3ccncc3)c(-c3ccc4c(c3)CC/C4=N\O)[nH]2)cc1` [SB-590885-AAE], the “Brd4 19F NMR” value in data set [1] is on record as “+++”. On 5FW-BPTF bromodomain, the “BPTF 19F NMR” value is listed as “-”. On Brd4 [3], the “Brd4 ΔTm” value was 5.1 ± 0.4 °C. Further, the Ki on Brd4 [2] (read-out: Brd4 FP Ki, competition with BODIPY-BI2536, 156 nM Brd4) was determined as 400 ± 230 nM.
By EC50 is commonly meant the midpoint of the concentration-response curve. For orientation: viability means a per cent measure of how many cells are alive, often set against a control. For the compound `COC(=O)c1cccc(NC(=O)NC2CCN(c3ccnc(Nc4ccc(F)cc4)n3)C2)c1` (stereo not drawn) [AU1], in [4], the “loss of luciferase activity” value is given as ~ 4 fold. In data set [1], the “Brd4 19F NMR” value is recorded as “-” and the “binding to Brd4 (in words)” value was “No binding is detected”. In addition, the “BPTF 19F NMR” value on 5FW-BPTF bromodomain is “+++”. In addition, the “cellular toxicity in hepatocytes” value in the data set on hepatocytes is listed as “did not detect cellular toxicity”. The EC50 in data set [5] is 500 nM. The same compound displayed a viability at 48 h, 10 µM in “Cell viability assay” of 76%. Besides, in the data set with HEK 293T cells, the “cellular toxicity against HEK 293T cells” value is “no cellular toxicity”.
Consider `CCn1c(-c2nonc2N)nc2c(-c3ccccc3)ncc(OCCCN)c21` [GSK260205A], for which the “Brd4 19F NMR” value in [1] is given as “+++”. On 5FW-BPTF bromodomain, the “BPTF 19F NMR” value was “+++”.
`Cc1cnc(Nc2ccc(OCCN3CCCC3)cc2)nc1Nc1cccc(S(=O)(=O)NC(C)(C)C)c1` [TG-101348, reference compound]: the “selectivity between BPTF and Brd4” value on 5FW-BPTF bromodomain is reported as “selective for Brd4 over BPTF”.
